Measured values taken from patent publication US20230085307A1, “PYRIDAZINONE COMPOUND AND HERBICIDE” (NISSAN CHEMICAL CORPORATION, priority 2019, published 2023).

How the values were obtained:
[1] = tested on: chickweed; test: Test Example 4: herbicidal effect by soil treatment (Table 19, symbol P); type: in vivo, common chickweed (Stellaria media)
How it was run: (§1)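 Soil-surface application: an emulsion agent diluted with water to the predetermined dose is sprayed uniformly over seeds lying under roughly 1.5 cm of sterilized diluvial soil. Boxes stay in a greenhouse at 25° C. to 30° C. Three weeks later, each species is graded on previously defined criteria.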

[2] = tested on: green foxtail; test: Test Example 5: herbicidal effect by foliage application, plastic box (Table 20, symbol G); type: in vivo, green foxtail (Setaria viridis); settings: foliage application
How it was run: (§2)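 Sow seeds spot-wise in sterilized diluvial soil; cover with ~1.5 cm soil. Grow 14 days in greenhouse, 25° C. to 30° C. Spray foliage with emulsion diluted to predetermined amount. Rate effect after 3 weeks.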

[3] = tested on: green foxtail; test: Test Example 4: herbicidal effect by soil treatment (Table 19, symbol G); type: in vivo, green foxtail (Setaria viridis); settings: amount of applied herbicide 320 g/ha
How it was run: as §1

[4] = tested on: wild oat; test: Test Example 5: herbicidal effect by foliage application, plastic box (Table 20, symbol I); type: in vivo, wild oat (Avena fatua); settings: foliage application
How it was run: as §2

[5] = tested on: windgrass; test: Test Example 4: herbicidal effect by soil treatment (Table 19, symbol L); type: in vivo, windgrass (Apera spica-venti); settings: amount of applied herbicide 320 g/ha
How it was run: as §1

[6] = tested on: lambsquarters; test: Test Example 4: herbicidal effect by soil treatment (Table 19, symbol O); type: in vivo, lambsquarters (Chenopodium album)
How it was run: as §1

[7] = tested on: Chinese sprangletop; test: Test Example 3: herbicidal effect by foliage application, Wagner pot (Table 18, symbol D); type: in vivo, chinese sprangletop (Leptochloa chinensis); settings: for herbicidal effect on D: Chinese sprangletop / Herbicidal effect on D (Chinese sprangletop), foliage application: amount of applied herbicide 320 g/ha
How it was run: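 Plants were sown in alluvial soil held under 0.1–0.5 cm standing water and grown 14 days in a greenhouse at 25–30 °C. An emulsifiable formulation, water-diluted to the set dose, was then sprayed onto the foliage, and effects were scored three weeks later using previously defined criteria.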

[8] = tested on: windgrass; test: Test Example 5: herbicidal effect by foliage application, plastic box (Table 20, symbol L); type: in vivo, windgrass (Apera spica-venti); settings: foliage application
How it was run: as §2

[9] = tested on: lambsquarters; test: Test Example 5: herbicidal effect by foliage application, plastic box (Table 20, symbol O); type: in vivo, lambsquarters (Chenopodium album); settings: foliage application
How it was run: as §2

[10] = tested on: Italian ryegrass; test: Test Example 4: herbicidal effect by soil treatment (Table 19, symbol K); type: in vivo, Italian ryegrass (Lolium multiflorum)
How it was run: as §1

[11] = tested on: wild oat; test: Test Example 4: herbicidal effect by soil treatment (Table 19, symbol I); type: in vivo, wild oat (Avena fatua)
How it was run: as §1

[12] = tested on: late watergrass; test: Test Example 1: herbicidal activity, application before weed generation under submerged conditions (Table 16, symbol A); type: in vivo, late watergrass (Echinochloa oryzicola)
How it was run: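 Emulsion formulation, water-diluted to set dose, was put onto the flooded surface (4 cm depth, alluvial soil) the same day weeds were sown and 2.5-leaf rice transplanted. After 3 weeks at 25-30 °C under glass, each species was rated 0 (≤5% kill) to 5 (≥90% kill).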

[13] = tested on: persian speedwell; test: Test Example 5: herbicidal effect by foliage application, plastic box (Table 20, symbol R); type: in vivo, Persian speedwell (Veronica persica); settings: foliage application
How it was run: as §2

[14] = tested on: velvetleaf; test: Test Example 5: herbicidal effect by foliage application, plastic box (Table 20, symbol M); type: in vivo, velvetleaf (Abutilon theophrasti); settings: foliage application
How it was run: as §2

[15] = tested on: Japanese bulrush; test: Test Example 2: herbicidal activity, application during weed generation under submerged conditions (Table 17, symbol B); type: in vivo, Japanese bulrush (Schoenoplectus juncoides); settings: for herbicidal effect rating, B: Japanese bulrush: application during weed generation, submerged conditions
How it was run: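 Alluvial soil in Wagner pots was flooded to 4 cm depth and sown with the three weeds together; pots were kept in a greenhouse at 25° C. to 30° C. At the one to two leaf stage, an emulsion formulation diluted in water to a set rate went onto the water surface; scored three weeks later.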

[16] = tested on: barnyard grass; test: Test Example 4: herbicidal effect by soil treatment (Table 19, symbol H); type: in vivo, barnyard grass (Echinochloa crus-galli)
How it was run: as §1

[17] = tested on: redroot pigweed; test: Test Example 5: herbicidal effect by foliage application, plastic box (Table 20, symbol N); type: in vivo, redroot pigweed (Amaranthus retroflexus); settings: foliage application; for N: redroot pigweed, herbicidal effect grade: three weeks after application
How it was run: as §2

[18] = amount of applied herbicide 320 g/ha
[19] = 320 g/ha, three weeks after application
[20] = 320 g/ha, evaluated 3 weeks after application
[21] = amount of applied herbicide 296 g/ha
[22] = 296 g/ha, three weeks after application

Row | SMILES | herbicidal effect, P: chickweed [1, 18] | G: green foxtail, herbicidal effect grade [2, 19] | herbicidal effect, G: green foxtail [3] | I: wild oat, herbicidal effect grade [4, 19] | herbicidal effect, L: windgrass [5] | herbicidal effect, O: lambsquarters [6, 18] | herbicidal effect on D: Chinese sprangletop [7] | L: windgrass, herbicidal effect grade [8, 19] | O: lambsquarters, herbicidal effect grade [9, 19] | herbicidal effect, K: Italian ryegrass [10, 18] | herbicidal effect, I: wild oat [11, 18] | Herbicidal effect, A: late watergrass [12, 18] | R: persian speedwell, herbicidal effect grade [13, 19] | M: velvetleaf, herbicidal effect grade [14, 19] | herbicidal effect rating, B: Japanese bulrush ([15]; AAH 320 g/ha) | herbicidal effect, H: barnyard grass [16, 18] | P: chickweed, herbicidal effect grade [1, 18] | G: green foxtail, herbicidal effect grade [3] | O: lambsquarters, herbicidal effect grade [6, 18] | Herbicidal effect on D (Chinese sprangletop), foliage application [7] | further results
1 | CCOc1ccccc1-c1sc2ccc(F)cc2c1-c1c(O)c(CC)nn(C)c1=O [2-416] | 2 (Herbicidal rate of 20% or more and less than 40%) | 2 (Herbicidal rate of 20% or more and less than 40%) | 0 (Herbicidal rate of 5% or less (almost no effect)) | 0 (Herbicidal rate of 5% or less (almost no effect)) | 0 (Herbicidal rate of 5% or less (almost no effect)) | 0 (Herbicidal rate of 5% or less (almost no effect)) | 3 (Herbicidal rate of 40% or more and less than 70%) | 0 (Herbicidal rate of 5% or less (almost no effect)) | 2 (Herbicidal rate of 20% or more and less than 40%) | 0 (Herbicidal rate of 5% or less (almost no effect)) | 0 (Herbicidal rate of 5% or less (almost no effect)) | 3 (Herbicidal rate of 40% or more and less than 70%) | 5 (Herbicidal rate of 90% or more (almost completely withered)) | 3 (Herbicidal rate of 40% or more and less than 70%) | 3 (Herbicidal rate of 40% or more and less than 70%) | 0 (Herbicidal rate of 5% or less (almost no effect)) | – | – | – | – | –
2 | CCCC(=O)Oc1c(C)nn(C)c(=O)c1-c1c(-c2ccc(F)cc2OC)sc2cc(F)ccc12 [3-010] | 4 (Herbicidal rate of 70% or more and less than 90%) | 5 (Herbicidal rate of 90% or more (almost completely withered)) | 3 (Herbicidal rate of 40% or more and less than 70%) | 5 (Herbicidal rate of 90% or more (almost completely withered)) | 4 (Herbicidal rate of 70% or more and less than 90%) | 5 (Herbicidal rate of 90% or more (almost completely withered)) | 0 (Herbicidal rate of 5% or less (almost no effect)) | 5 (Herbicidal rate of 90% or more (almost completely withered)) | 5 (Herbicidal rate of 90% or more (almost completely withered)) | 4 (Herbicidal rate of 70% or more and less than 90%) | 4 (Herbicidal rate of 70% or more and less than 90%) | 5 (Herbicidal rate of 90% or more (almost completely withered)) | 5 (Herbicidal rate of 90% or more (almost completely withered)) | 5 (Herbicidal rate of 90% or more (almost completely withered)) | – | 3 (Herbicidal rate of 40% or more and less than 70%) | – | – | – | – | N: redroot pigweed, herbicidal effect grade ([17]; 320 g/ha): 5 (Herbicidal rate of 90% or more (almost completely withered))
3 | Cc1nn(C)c(=O)c(-c2c(-c3ccc(OC(C)C)cc3)oc3ccc(F)cc23)c1O [9-025] | – | – | – | – | – | – | – | – | – | – | – | 5 (Herbicidal rate of 90% or more (almost completely withered)) | – | – | 3 (Herbicidal rate of 40% or more and less than 70%) | – | 0 (Herbicidal rate of 5% or less (almost no effect)) | 5 (Herbicidal rate of 90% or more (almost completely withered)) | 4 (Herbicidal rate of 70% or more and less than 90%) | 2 (Herbicidal rate of 20% or more and less than 40%) | herbicidal effect on green foxtail (G) [2, 19]: 0 (Herbicidal rate of 5% or less (almost no effect)); herbicidal effect on wild oat (I) [4, 19]: 3 (Herbicidal rate of 40% or more and less than 70%); herbicidal effect on windgrass (L) [8, 19]: 0 (Herbicidal rate of 5% or less (almost no effect)); herbicidal effect on lambsquarters (O) [9, 19]: 4 (Herbicidal rate of 70% or more and less than 90%); K: Italian ryegrass, herbicidal effect grade [10, 18]: 5 (Herbicidal rate of 90% or more (almost completely withered)); I: wild oat, herbicidal effect grade [11, 18]: 0 (Herbicidal rate of 5% or less (almost no effect)); herbicidal effect on persian speedwell (R) [13, 19]: 5 (Herbicidal rate of 90% or more (almost completely withered)); herbicidal effect on velvetleaf (M) [14, 19]: 5 (Herbicidal rate of 90% or more (almost completely withered)); H: barnyard grass, herbicidal effect grade [16, 18]: 4 (Herbicidal rate of 70% or more and less than 90%)
4 | COCCOc1ccc(-c2oc3ccc(C)cc3c2-c2c(O)c(C)nn(C)c2=O)cc1 [9-063] | – | – | – | – | – | – | – | – | – | – | – | 5 (Herbicidal rate of 90% or more (almost completely withered)) | – | – | – | – | 4 (Herbicidal rate of 70% or more and less than 90%) | 5 (Herbicidal rate of 90% or more (almost completely withered)) | 5 (Herbicidal rate of 90% or more (almost completely withered)) | 3 (Herbicidal rate of 40% or more and less than 70%) | G (green foxtail) herbicidal effect grade [2, 20]: 5 (Herbicidal rate of 90% or more (almost completely withered)); I (wild oat) herbicidal effect grade [4, 20]: 1 (Herbicidal rate of 5% or more and less than 20%); L (windgrass) herbicidal effect grade [8, 20]: 4 (Herbicidal rate of 70% or more and less than 90%); O (lambsquarters) herbicidal effect grade [9, 20]: 5 (Herbicidal rate of 90% or more (almost completely withered)); K: Italian ryegrass, herbicidal effect grade [10, 18]: 5 (Herbicidal rate of 90% or more (almost completely withered)); I: wild oat, herbicidal effect grade [11, 18]: 0 (Herbicidal rate of 5% or less (almost no effect)); R (persian speedwell) herbicidal effect grade [13, 20]: 5 (Herbicidal rate of 90% or more (almost completely withered)); M (velvetleaf) herbicidal effect grade [14, 20]: 5 (Herbicidal rate of 90% or more (almost completely withered)); herbicidal effect grade, B: Japanese bulrush ([15]; application during weed generation under submerged conditions, amount of applied herbicide 320 g/ha): 4 (Herbicidal rate of 70% or more and less than 90%); N (redroot pigweed) herbicidal effect grade [17, 20]: 5 (Herbicidal rate of 90% or more (almost completely withered)); H: barnyard grass, herbicidal effect grade [16, 18]: 5 (Herbicidal rate of 90% or more (almost completely withered))
5 | CCCC(=O)Oc1c(C)nn(C)c(=O)c1-c1c(-c2ccccc2OC)sc2cc(OC)ccc12 [Compound No. 3-066, 5-(6-methoxy-2-(2-methoxyphenyl)benzo[b]thiophen-3-yl)-1,3-dimethyl-6-oxo-1,6-dihydropyridazin-4-yl=(n-butyrate)] | – | – | – | – | – | – | – | – | – | – | – | – | – | – | – | – | – | – | – | – | P: chickweed, herbicidal effect grade [1, 21]: 4 (Herbicidal rate of 70% or more and less than 90%); G: green foxtail, herbicidal effect grade [2, 22]: 4 (Herbicidal rate of 70% or more and less than 90%); I: wild oat, herbicidal effect grade [4, 22]: 3 (Herbicidal rate of 40% or more and less than 70%); O: lambsquarters, herbicidal effect grade [6, 21]: 0 (Herbicidal rate of 5% or less (almost no effect)); herbicidal effect on Chinese sprangletop (D) ([7]; 296 g/ha): 1 (Herbicidal rate of 5% or more and less than 20%); L: windgrass, herbicidal effect grade [8, 22]: 5 (Herbicidal rate of 90% or more (almost completely withered)); O: lambsquarters, herbicidal effect grade [9, 22]: 5 (Herbicidal rate of 90% or more (almost completely withered)); K: Italian ryegrass, herbicidal effect grade [10, 21]: 4 (Herbicidal rate of 70% or more and less than 90%); I: wild oat, herbicidal effect grade [11, 21]: 2 (Herbicidal rate of 20% or more and less than 40%); Herbicidal effect, A: late watergrass [12, 21]: 5 (Herbicidal rate of 90% or more (almost completely withered)); R: persian speedwell, herbicidal effect grade [13, 22]: 1 (Herbicidal rate of 5% or more and less than 20%); M: velvetleaf, herbicidal effect grade [14, 22]: 4 (Herbicidal rate of 70% or more and less than 90%); herbicidal effect rating, B: Japanese bulrush ([15]; AAH 296 g/ha): 4 (Herbicidal rate of 70% or more and less than 90%); N: redroot pigweed, herbicidal effect grade ([17]; 296 g/ha): 5 (Herbicidal rate of 90% or more (almost completely withered)); H: barnyard grass, herbicidal effect grade [16, 21]: 0 (Herbicidal rate of 5% or less (almost no effect))
